US20100279997A1, “ANALGESIC THAT BINDS FILAMIN A” (priority 2009, published 2010)
Read-outs that look alike come from different tables or passages of the source.

Legend:
[1] = target: T1, μ opiate receptor (MOR) (Rattus norvegicus, UniProt P33535); assay: MOR agonist activity, [35S]GTPγS binding assay using striatal membranes; format: biochemical; details: for [35S]GTPγS binding to Gαo, FLNA-binding compound as agonist 0.1 μM: 0.1 μM compound; for [35S]GTPγS binding to Gαo, FLNA-binding compound as agonist 0.1 μM / [35S]GTPγS binding to Gαo, FLNA-binding compound as agonist 1 μM: striatal membranes; for [35S]GTPγS binding to Gαo, FLNA-binding compound as agonist 1 μM + BFNA: 1 μM compound + 1 μM β-funaltrexamine; for [35S]GTPγS binding to Gαo, FLNA-binding compound as agonist 1 μM: 1 μM compound; for % DAMGO + BFNA: relative to DAMGO + BFNA; for % DAMGO (0.1 μM) / % DAMGO (1 μM): relative to DAMGO
T1 construct: from tissue; host or cells: striatal tissue (membrane preparation)
Protocol: To assess the μ opiate receptor (MOR) agonist activity of positive compounds from the FLNA screening, compounds were tested in a [^35S]GTPγS binding assay using striatal membranes.
Striatal tissue was homogenized in 10 volumes of ice cold 25 mM HEPES buffer, pH 7.4, which contained 1 mM EGTA, 100 mM sucrose, 50 μg/ml leupeptin, 0.04 mM PMSF, 2 μg/ml soybean trypsin inhibitor and 0.2% 2-mercaptoethanol. The homogenates were centrifuged at 800×g for 5 minutes and the supernatants were centrifuged at 49,000×g for 20 minutes. The resulting pellets were suspended in 10 volume of reaction buffer, which contained 25 mM HEPES, pH 7.5, 100 mM NaCl, 50 μg/ml leupeptin, 2 μg/ml soybean trypsin inhibitor, 0.04 mM PMSF and 0.02% […].
The resultant striatal membrane preparation (200 μg) was admixed and maintained (incubated) at 30° C. for 5 minutes in reaction buffer as above that additionally contained 1 mM MgCl2 and 0.5 nM [^35S]GTPγS (0.1 μCi/assay, PerkinElmer Life and Analytical Sciences) in a total volume of 250 μl and continued for 5 minutes in the absence or presence of 0.1-10 μM of an assayed compound of interest. The reaction was terminated by dilution with 750 μl of ice-cold reaction buffer that contained 20 mM MgCl2 and 1 mM EGTA and immediate centrifugation at 16,000×g for 5 minutes.
The resulting pellet was solubilized by sonicating for 10 seconds in 0.5 ml of immunoprecipitation buffer containing 0.5% digitonin, 0.2% sodium cholate and 0.5% NP-40. Normal rabbit serum (1 μl) was added to 1 ml of lysate and incubated at 25° C. for 30 minutes. Nonspecific immune complexes were removed by incubation with 25 μl of protein A/G-conjugated agarose beads at 25° C. for 30 minutes followed by centrifugation at 5,000×g at 4° C. for 5 minutes. The supernatant was divided and separately incubated at 25° C. for 30 minutes with antibodies raised against Gao proteins (1:1,000 dilutions).
The immunocomplexes so formed were collected by incubation at 25° C. for 30 minutes with 40 μl of agarose-conjugated protein A/G beads and centrifugation at 5,000×g at 4° C. for 5 minutes. The pellet was washed and suspended in buffer containing 50 mM Tris-HCl, pH 8.0, and 1% NP-40. The radioactivity in the suspension was determined by liquid scintillation spectrometry. […] DAMGO (H-Tyr-D-Ala-Gly-N-MePhe-Gly-OH; 1 or 10 μM) was used as a positive control.

[2] = target: Bn-VAKGL pentapeptide of filamin A (FLNA) (Homo sapiens, UniProt P21333); assay: FITC-NLX-based FLNA screening assay (FLNA peptide binding assay)
Protocol: The final assay volume is 100 μl.
Compounds are tested in triplicate or quadruplicate.

[3] = read-out: Percent inhibition of FITC-NLX binding, 0.01 μM, 0.01 μM compound, 10 nM FITC-NLX
[4] = read-out: Percent inhibition of FITC-NLX binding, 0.1 μM, 0.1 μM compound, 10 nM FITC-NLX
[5] = read-out: Percent inhibition of FITC-NLX binding, 1 μM, 1 μM compound, 10 nM FITC-NLX
[6] = read-out: Percent inhibition of FITC-NLX binding, 0.01 μM
[7] = read-out: Percent inhibition of FITC-NLX binding, 0.1 μM
[8] = read-out: Percent inhibition of FITC-NLX binding, 1 μM

T1 sequence (P33535 whole entry): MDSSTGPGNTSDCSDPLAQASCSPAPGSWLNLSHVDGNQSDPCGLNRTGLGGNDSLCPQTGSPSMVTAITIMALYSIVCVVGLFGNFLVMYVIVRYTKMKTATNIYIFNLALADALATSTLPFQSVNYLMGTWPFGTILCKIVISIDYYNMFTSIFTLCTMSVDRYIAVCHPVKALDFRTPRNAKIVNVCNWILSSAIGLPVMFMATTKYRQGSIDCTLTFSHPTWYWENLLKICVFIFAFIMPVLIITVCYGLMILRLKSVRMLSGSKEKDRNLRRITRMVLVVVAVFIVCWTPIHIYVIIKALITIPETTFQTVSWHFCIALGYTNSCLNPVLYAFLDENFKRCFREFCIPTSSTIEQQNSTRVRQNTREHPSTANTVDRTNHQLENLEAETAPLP

SMILES	[35S]GTPγS binding to Gαo, FLNA-binding compound as agonist 0.1 μM [1]	[35S]GTPγS binding to Gαo, FLNA-binding compound as agonist 1 μM + BFNA [1]	[35S]GTPγS binding to Gαo, FLNA-binding compound as agonist 1 μM [1]	% DAMGO + BFNA [1]	% DAMGO (0.1 μM) [1]	% DAMGO (1 μM) [1]	inhibition at 0.01 µM [2, 3]	inhibition at 0.1 µM [2, 4]	inhibition at 1 µM [2, 5]	inhibition at 0.01 µM [2, 6]	inhibition at 0.1 µM [2, 7]	inhibition at 1 µM [2, 8]
COc1ccc(OCC(O)CN2CCCc3ccccc32)cc1 (stereo not shown) [Compound A0067]	170.8%	33.9%	254.4%	98.3%	99.2%	115.8%	32.7%	39.1%	44.3%			
CC1CCC(C(C)C)C(OCC(O)CN2CCN(Cc3ccccc3)CC2)C1 (stereo not shown) [Compound A0072]	254.3%	171.8%	305.1%	318.7%	126.8%	97.2%				45.5%	52.2%	59.4%
CC1CCC(C(C)C)C(OCC(O)CN2CCOc3ccccc32)C1 (stereo not shown) [Compound A0066]	151.9%	59.2%	195.6%	171.6%	88.3%	89.0%	36.7%	45.4%	53.7%			
OC(COc1ccc(Br)c(F)c1)CN1CCN(CCN2CCOCC2)CC1 (stereo not shown) [Compound A0063]	122.8%	310%	245.8%	77.7%	78.7%	106.6%				21.2%	31%	38.8%
CC1CN(CC(O)COc2ccccc2C(C)C)CC(C)O1 (stereo not shown) [Compound A0029]	173.8%	22.3%	206.5%					44.4%				
COc1ccc(OCC(O)CN2CCc3cc4c(c(OC)c3C2)OCO4)cc1 (stereo not shown) [Compound A0070]	128.6%	80.3%	195.3%	232.8%	74.7%	88.9%	32.9%	39.1%	41.7%			
CC1CCN(CC(O)COC2CC(C)CCC2C(C)C)CC1 (stereo not shown) [Compound A0006]	170.0%	18.2%	190.9%									
CC1CCC(C(C)C)C(OCC(O)Cn2ccc3ccccc32)C1 (stereo not shown) [Compound A0078]	250.5%	147.8%	289.9%									
CC1CCC(C(C)C)C(OCC(O)CN2CCN(C)CC2)C1 (stereo not shown) [Compound A0009]	70.2%	93.9%	126.4%									
CC(=O)c1ccc(OCC(O)CN2CC(C)OC(C)C2)cc1 (stereo not shown) [Compound A0044]	176.2%	134.7%	209.1%									
COc1ccc(OCC(O)CN2CCc3ccccc32)cc1 (stereo not shown) [Compound A0069]										32%	40.4%	46.1%
CC1CCC(C(C)C)C(OCC(O)CN2CCCC2=O)C1 (stereo not shown) [Compound A0035]	120.6%	88.6%	158.8%									
CC1CCC(C(C)C)C(OCC(CN2CC(C)OC(C)C2)NCc2ccccc2)C1 (stereo not shown) [Compound A0033]	155.8%	118.2%	254.6%									
Cc1ccc(C(C)C)c(OCC(O)CN2CC(C)OC(C)C2)c1 (stereo not shown) [Compound A0028]	143.6%	116.7%	187.7%									
COc1ccc(OCC(O)CN2CCOc3ccccc32)cc1 (stereo not shown) [Compound A0076]	79.8%	41.2%	172.6%	119.4%	46.4%	78.6%						
CC1CN(CC(O)COc2ccccc2)CC(C)O1 (stereo not shown) [Compound A0025]	58.6%	52.2%	138.7%									
CCN(CC)CC(O)COC1CC(C)CCC1C(C)C (stereo not shown) [Compound A0032]	226.9%	133.0%	257.8%									
CC1CCC(C(C)C)C(OCC(O)CN2CCSCC2)C1 (stereo not shown) [Compound A0003]	176.8%	17.1%	276.0%									
CC1CCC(C(C)C)C(OCC(O)Cn2cccc2)C1 (stereo not shown) [Compound A0038]	176.7%	107.0%	234.5%									
CC1CCC(C(C)C)C(OCC(O)CN2CCSC2)C1 (stereo not shown) [Compound A0002]	155.6%	6.5%	199.4%									
CC1CCC(C(C)C)C(OCC(O)CN2CCCCCCC2)C1 (stereo not shown) [Compound A0014]	147.0%	140.8%	174.9%									
CC1CCC(C(C)C)C(OCC(O)CN2CCN(CCN3CCCCC3)CC2)C1 (stereo not shown) [Compound A0031]	178.2%	150.9%	297.0%									
CC1CCC(C(C)C)C(OCC(O)CN2CCCC2)C1 (stereo not shown) [Compound A0001]	94.3%	22.2%	181.7%									
Cc1cccc(OCC(O)CN2CC(C)OC(C)C2)c1 (stereo not shown) [Compound A0030]	133.4%	165.2%	287.8%									
CC1CCC(C)C(OCC(O)CN2CC(C)OC(C)C2)C1 (stereo not shown) [Compound A0022]	154.1%	28.0%	216.0%									
CC1CN(CC(O)COc2cccc(N(C)C)c2)CC(C)O1 (stereo not shown) [Compound A0042]	147.5%	89.5%	233.1%									
